The NIST ThermoML archive (doi:10.1021/je300339q)

Columns and labels:
[1] = mn = molality of the nth substance listed, in mol/kg; conditions: 101 kPa, Liquid, Direct current cell with electrodes
[2] = 101.33 kPa, Liquid; for viscosity: Capillary tube (Ostwald / Ubbelohde) method; for mass density: Vibrating tube method

CCCCn1cc[n+](CCC)c1.[Br-] [1-butyl-3-propyl-1H-imidazolium bromide] + O
molar conductivity [S·m2/mol], [1]
Conditions	308 K	313 K	318 K
m1 = 0.005651	0.012224	0.013136	0.01387
m1 = 0.007536	0.012106	0.013013	0.01376
m1 = 0.01005	0.011972	0.012872	0.013625
m1 = 0.01341	0.011818	0.012712	0.013474
m1 = 0.0179	0.011642	0.012531	0.013305
m1 = 0.02389	0.011441	0.01232	0.013116
m1 = 0.0319	0.011212	0.012091	0.012905
m1 = 0.04262	0.01095	0.011824	0.012669
m1 = 0.05696	0.01065	0.011518	0.012401
m1 = 0.07621	0.010304	0.011165	0.012094
m1 = 0.08987	0.010084	0.01094	0.011898
m1 = 0.1	0.00996	0.0108	0.01177

CC#N [acetonitrile]
[2]
Conditions	mass density [kg/m3]	viscosity [mPa·s]
308.15 K	765.64	0.3125
313.15 K	759.7	0.3042
318.15 K	755.01	0.2903

CO [methanol]
[2]
Conditions	mass density [kg/m3]	viscosity [mPa·s]
308.15 K	777.18	0.4747
313.15 K	772.5	0.444
318.15 K	767.7	0.4185
